Results from US8772329B2, “Compounds from mycelium of Antrodia cinnamomea and use thereof” (Simpson Biotech Co., Ltd., priority 2008, dated 2014).

How the values were obtained:
[1] = target: T1, HCV NS3/4A protease (Hepatitis C virus genotype 1b, UniProt O92972); assay: HCV protease inhibition assay (SensoLyte 520 HCV Protease Assay Kit, FRET peptide substrate); assay type: biochemical; conditions: for IC50: enzyme 0.5 μg/ml, 30 min at room temperature (28° C.), read-out: IC50 against HCV protease (converted)
T1 construct: HCV NS3/4A protease; purchased AnaSpec, San Jose, Calif., USA lot# Lot 046-047 (screening); lot# Lot 046-079 (mechanism study); catalogue number not given
Excerpt: Since the mycelium of Antrodia cinnamomea was recently reported to be clinically effective for hepatitis patients infected with HCV (Akiba T et al. 2007. Clinical study of Shoshi on Japanese hepatitis patients infected with C type hepatitis virus. The second Taiwan and Japan Symposium on Antrodia cinnamomea, Abst. pp. 82-98), a SensoLyte™ 520 HCV protease assay kit was applied to investigate the HCV-protease inhibitory activity of the isolated antrodins, the metabolites of antrodin C as well as one metabolite analogue. The assay method with a quenched-fluorogenic peptide substrate can be used for measure the activity of inhibitors as well as for continuous recording of the progress of the enzyme reaction.
The mode of inhibition was kinetically analyzed by plotting the enzyme activity at different concentrations of the substrate (10, 50, 100 and 200 times dilution of the substrate stocking solution) with (5 μg/ml, and 10 μg/ml) and without [0 μg/ml (DMSO)] compound 1.
HCV NS3/4A protease (lot# Lot 046-047 for the screening and lot# Lot 046-079 for the mechanism study) and SensoLyte™ 520 HCV Protease Assay Kit *Fluorimetric* (lot# AK 71147-1005) were purchased from AnaSpec, San Jose, Calif., USA. The substrate was a 5-FAM/QXL™520 FRET peptide based on the sequence of Ac-Asp-Glu-Asp(EDANS)-Glu-Glu-Abu-Ψ-[COO]Ala-Ser-Lys(DABCYL)-NH2. The assay was carried out on BD Falcon™ Microtest™384-well 120 μl black assay plates (lot#05391155). Fluorescence was measured by TECAN GENios plate reader at excitation/emission 485/530 nm Chemical compounds. Antrodins A-E (compounds 1-5) were isolated from the mycelium of Antrodia cinnamomea as reported (Nakamura et al., 2004. Five new maleic and succinic acid derivatives from the mycelium of Antrodia comphorata and their cytotoxic effects on LLC tumor cell line. J Nat Prod 67: 46-48). Embelin used as a positive control was isolated in our laboratory in previous work (Hussein et al., 2000, Inhibitory effects of Sudanese medicinal plant extracts on hepatitis C virus (HCV) Protease. Phytother Res 14: 510-516). Compounds 6, 7a and 7b were detected as the metabolites of antrodin C in vivo. Compounds 7a and 7b were un-separable due to the equilibrium of these two compounds through compound 1. It was thus used for the assay as a mixture of compounds 1, 7a and 7b and named 7. Compound 8 was an analogue of another metabolite whose glycine group was supposed to connect to the other carboxyl group in the structure.
Compound 6 was dissolved in H2O and other compounds were dissolved in DMSO for the assay. To each well were added 2 μl of respective compound solution and 8 μl of freshly diluted enzyme (0.5 μg/ml). The reaction was started by adding 10 μl of freshly diluted substrate (100 times dilution of a DMSO stocking solution). After being incubated at room temperature (28° C.) for 30 min, the fluorescence intensities were measured at Ex/Em=485 nm/535 nm. Inhibition percentages were calculated as 100×(Fvehicle−Fsample)/Fvehicle=% inhibition, where F is the fluorescence value of vehicle control or of compound minus the fluorescence of the substrate control.

[2] = system: Propionicbacterium acnes and lipopolysaccharide treated mice; conditions: cited from earlier work
[3] = cited from earlier work

T1 sequence (O92972 1013-1207, looked up, natural form): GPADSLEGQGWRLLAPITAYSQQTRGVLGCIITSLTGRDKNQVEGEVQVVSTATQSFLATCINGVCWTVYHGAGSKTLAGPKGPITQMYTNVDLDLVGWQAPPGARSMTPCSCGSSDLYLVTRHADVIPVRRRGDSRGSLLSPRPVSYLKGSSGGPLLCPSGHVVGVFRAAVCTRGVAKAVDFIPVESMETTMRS

CC(C)=CCOc1ccc(C2=C(CC(C)C)C(=O)OC2=O)cc1 [Compound 1, 3-isobutyl-4-[4-(3-methyl-2-butenyloxy)phenyl]furan-2,5-dione]
mode of HCV PR inhibition (Lineweaver-Burk plot) ([1]; compound 1 at 0, 5 and 10 μg/ml, substrate 10, 50, 100 and 200 times dilution): competitive | IC50 [1]: 2.86 µM

CC(C)=CCOc1ccc(C2=C(CC(C)C)C(=O)NC2=O)cc1 [Compound 2, 3-isobutyl-4-[4-(3-methyl-2-butenyloxy)phenyl]-1H-pyrrol-2,5-dione]
IC50 [1]: > 319 µM

CC(C)=CCOc1ccc(C2=C(CC(C)C)C(=O)N(O)C2=O)cc1 [Compound 3, 3-isobutyl-4-[4-(3-methyl-2-butenyloxy)phenyl]-1H-pyrrol-1-ol-2,5-dione]
IC50 [1]: 8.8 µM | protective activity [2]: showed protective activity | detection of parent compound in the body ([3]; after absorption): could not be detected in the body after absorption | absorption ([3]; gastrointestinal tract): quickly absorbed from the gastrointestinal tract | metabolization ([3]; liver): rapid and complete metabolization in liver | in vivo metabolism (metabolites formed) ([3]; metabolites: compounds 1, 2, 6, 7a, 7b and an analogue of compound 8): converted to six metabolites

CC(C)=CCOc1ccc(C2C(=O)N(O)C(=O)C2CC(C)C)cc1 (centres unmarked) [Compound 4, 3R*,4S*-1-hydroxy-3-isobutyl-4-[4-(3-methyl-2-butenyloxy)phenyl]pyrrolidine-2,5-dione]
IC50 [1]: 60.3 µM

CC(C)=CCOc1ccc(C2C(=O)N(O)C(=O)C2CC(C)C)cc1 (centres unmarked) [Compound 5, 3R*,4R*-1-hydroxy-3-isobutyl-4-[4-(3-methyl-2-butenyloxy)phenyl]pyrrolidine-2,5-dione]
IC50 [1]: 60.6 µM

CC(C)=CCOc1ccc(/C(C(=O)O)=C(\CC(C)C)C(=O)O)cc1 [Compound 6, (2Z)-2-isobutyl-3-{4-[(3-methylbut-2-en-1-yl)oxy]phenyl}but-2-enedioic acid]
IC50 [1]: 19.9 µM

CC(C)=CCOc1ccc(/C(C(=O)NCC(=O)O)=C(\CC(C)C)C(=O)O)cc1 [Compound 8]
IC50 [1]: 148 µM

CCCCCCCCCCCC1=C(O)C(=O)C=C(O)C1=O [Embelin, reference compound]
IC50 [1]: 13.9 µM
